Test results reported in patent US9738655B2, “Tetrahydroisoquinolines containing substituted azoles as factor XIa inhibitors” (BRISTOL-MYERS SQUIBB COMPANY, priority 2013, dated 2017).
Where a name gives a salt, the structure may show the parent alone. Read-outs that look alike come from different tables or passages of the source.

Biological target: purified human Factor XIa (Homo sapiens (Human), UniProt P03951)
Assay: Factor XIa enzyme inhibition assay (chromogenic substrate S-2366)
[1] = read-out: Factor XIa Ki, measured at 25° C.

purified human Factor XIa, sequence (P03951 388-625): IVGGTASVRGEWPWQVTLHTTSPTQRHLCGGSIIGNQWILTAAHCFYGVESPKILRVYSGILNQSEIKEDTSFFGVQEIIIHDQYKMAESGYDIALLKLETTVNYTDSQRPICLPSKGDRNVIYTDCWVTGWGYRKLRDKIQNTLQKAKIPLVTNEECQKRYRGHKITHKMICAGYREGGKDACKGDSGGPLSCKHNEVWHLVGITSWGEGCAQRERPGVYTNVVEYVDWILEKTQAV
purified human Factor XIa, sequence (P03951 19-387 partner): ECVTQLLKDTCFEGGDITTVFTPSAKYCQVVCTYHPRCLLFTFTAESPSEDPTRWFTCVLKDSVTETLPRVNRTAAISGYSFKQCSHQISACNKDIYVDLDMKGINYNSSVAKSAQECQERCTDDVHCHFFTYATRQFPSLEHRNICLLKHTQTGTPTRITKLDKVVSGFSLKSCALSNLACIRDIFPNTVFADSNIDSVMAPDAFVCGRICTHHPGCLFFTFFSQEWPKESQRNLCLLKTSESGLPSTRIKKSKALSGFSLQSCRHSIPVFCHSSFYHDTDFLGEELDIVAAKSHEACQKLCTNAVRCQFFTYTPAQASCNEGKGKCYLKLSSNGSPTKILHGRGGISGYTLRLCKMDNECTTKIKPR

SMILES	Ki [1] [µM]	Ki [µM]
COC1CCN(c2cccc3c2CCN(C(=O)c2sc(-c4cccnc4)nc2C)C3C(=O)Nc2ccc(C(=O)O)cc2)CC1 (stereo not drawn) [Example 146, 4-(5-(4-methoxypiperidin-1-yl)-2-(4-methyl-2-(pyridin-3-yl)thiazole-5-carbonyl)-1,2,3,4-tetrahydroisoquinoline-1-carboxamido)benzoic acid, 2 TFA salt]	1.2	–
O=C(O)c1ccc(NC(=O)C2c3cccc(N4CCOCC4=O)c3CCN2C(=O)[C@H]2CC(c3cccc(Cl)c3F)=NO2)cc1 (stereo in doubt) [Example 290, 4-((S)-2-((R)-3-(3-chloro-2-fluorophenyl)-4,5-dihydroisoxazole-5-carbonyl)-5-(3-oxomorpholino)-1,2,3,4-tetrahydroisoquinoline-1-carboxamido)benzoic acid]	0.0134	–
O=C(O)c1ccc(NC(=O)[C@H]2c3cccc(N4CCC(O)CC4)c3CCN2C(=O)c2cn(-c3cccc(Cl)c3F)nn2)cc1 [Example 87, (R)-4-(2-(1-(3-chloro-2-fluorophenyl)-1H-1,2,3-triazole-4-carbonyl)-5-(4-hydroxypiperidin-1-yl)-1,2,3,4-tetrahydroisoquinoline-1-carboxamido)benzoic acid, TFA salt]	0.043	–
COC1CCN(c2cccc3c2CCN(C(=O)C2CCN(c4ccc(OC(C)C)cc4)C2=O)C3C(=O)Nc2ccc(C(=O)O)cc2)CC1 (stereo not drawn) [Example 149, 4-(2-(1-(4-isopropoxyphenyl)-2-oxopyrrolidine-3-carbonyl)-5-(4-methoxypiperidin-1-yl)-1,2,3,4-tetrahydroisoquinoline-1-carboxamido)benzoic acid, TFA salt]	7.16	–
O=C(N[C@H]1CC[C@@H](C(=O)O)CC1)C1c2cccc(-c3cncnc3)c2CCN1C(=O)c1cn(-c2cccc(Cl)c2F)nn1 (stereo partly drawn) [Example 133, (1R,4R)-4-(2-(1-(3-chloro-2-fluorophenyl)-1H-1,2,3-triazole-4-carbonyl)-5-(pyrimidin-5-yl)-1,2,3,4-tetrahydroisoquinoline-1-carboxamido) cyclohexanecarboxylic acid]	0.0126	–
CN1CCC(=O)N(c2cccc3c2CCN(C(=O)c2cnn(-c4cccc(Cl)c4F)c2)C3C(=O)Nc2ccc(C(=O)O)cc2)CC1 (stereo not drawn) [Example 70, 4-(2-(1-(3-chloro-2-fluorophenyl)-1H-pyrazole-4-carbonyl)-5-(4-methyl-7-oxo-1,4-diazepan-1-yl)-1,2,3,4-tetrahydroisoquinoline-1-carboxamido)benzoic acid, TFA salt]	0.0293	–
COc1ncc(-c2cccc3c2CCN(C(=O)c2cn(-c4cccc(Cl)c4F)nn2)C3C(=O)Nc2ccc(C(=O)O)cc2)c(OC)n1 (stereo not drawn) [Example 158, 4-(2-(1-(3-chloro-2-fluorophenyl)-1H-1,2,3-triazole-4-carbonyl)-5-(2,4-dimethoxypyrimidin-5-yl)-1,2,3,4-tetrahydroisoquinoline-1-carboxamido)benzoic acid]	–	< 0.005
COC1CCN(c2cccc3c2CCN(C(=O)c2cc(-c4ccccc4Cl)no2)C3C(=O)Nc2ccc(C(=O)O)cc2)CC1 (stereo not drawn) [Example 148, 4-(2-(3-(2-chlorophenyl)isoxazole-5-carbonyl)-5-(4-methoxypiperidin-1-yl)-1,2,3,4-tetrahydroisoquinoline-1-carboxamido)benzoic acid, TFA salt]	0.0695	–

Other lines, results leading:

Ki [1] [µM]	Ki [µM]	SMILES
0.00592	–	O=C(O)c1ccc(NC(=O)C2c3cccc(-c4ccccc4CN4CCOCC4)c3CCN2C(=O)c2cn(-c3cccc(Cl)c3F)nn2)cc1 (stereo not drawn) [Example 179, 4-(2-(1-(3-chloro-2-fluorophenyl)-1H-1,2,3-triazole-4-carbonyl)-5-(2-(morpholinomethyl)phenyl)-1,2,3,4-tetrahydroisoquinoline-1-carboxamido)benzoic acid, TFA salt]
< 0.005	–	CNC(=O)c1ccc(-c2cccc3c2CCN(C(=O)c2cn(-c4cccc(Cl)c4F)nn2)C3C(=O)Nc2ccc(C(=O)O)cc2)cn1 (stereo not drawn) [Example 166, 4-(2-(1-(3-chloro-2-fluorophenyl)-1H-1,2,3-triazole-4-carbonyl)-5-(6-(methylcarbamoyl)pyridin-3-yl)-1,2,3,4-tetrahydroisoquinoline-1-carboxamido)benzoic acid, TFA salt]
< 0.005	–	CC1(O)CCN(c2cccc3c2CCN(C(=O)c2cnn(-c4cccc(Cl)c4F)c2)C3C(=O)Nc2ccc(C(=O)O)cc2)CC1 (stereo not drawn) [Example 68, 4-(2-(1-(3-chloro-2-fluorophenyl)-1H-pyrazole-4-carbonyl)-5-(4-hydroxy-4-methylpiperidin-1-yl)-1,2,3,4-tetrahydroisoquinoline-1-carboxamido)benzoic acid, TFA salt]
< 0.005	–	CN(C)c1ccc(-c2cccc3c2CCN(C(=O)c2cn(-c4cccc(Cl)c4F)nn2)C3C(=O)Nc2ccc(C(=O)O)cc2)cn1 (stereo not drawn) [Example 172, 4-(2-(1-(3-chloro-2-fluorophenyl)-1H-1,2,3-triazole-4-carbonyl)-5-(6-(dimethylamino)pyridin-3-yl)-1,2,3,4-tetrahydroisoquinoline-1-carboxamido)benzoic acid]
< 0.005	–	NCc1cccc(-c2cccc3c2CCN(C(=O)c2cn(-c4cccc(Cl)c4F)nn2)C3C(=O)Nc2ccc(C(=O)O)cc2)c1 (stereo not drawn) [Example 173, 4-(5-(3-(aminomethyl)phenyl)-2-(1-(3-chloro-2-fluorophenyl)-1H-1,2,3-triazole-4-carbonyl)-1,2,3,4-tetrahydroisoquinoline-1-carboxamido)benzoic acid, TFA salt]
< 0.005	–	O=C(O)c1ccc(NC(=O)C2c3cccc(C4=CCOCC4)c3CCN2C(=O)c2cn(-c3cccc(Cl)c3F)nn2)cc1 (stereo not drawn) [Example 165, 4-(2-(1-(3-chloro-2-fluorophenyl)-1H-1,2,3-triazole-4-carbonyl)-5-(3,6-dihydro-2H-pyran-4-yl)-1,2,3,4-tetrahydroisoquinoline-1-carboxamido)benzoic acid]
< 0.005	–	Cc1nnc(-c2cccc(-c3cccc4c3CCN(C(=O)c3cn(-c5cccc(Cl)c5F)nn3)C4C(=O)Nc3ccc(C(=O)O)cc3)c2)o1 (stereo not drawn) [Example 171, 4-(2-(1-(3-chloro-2-fluorophenyl)-1H-1,2,3-triazole-4-carbonyl)-5-(3-(5-methyl-1,3,4-oxadiazol-2-yl)phenyl)-1,2,3,4-tetrahydroisoquinoline-1-carboxamido)benzoic acid]
< 0.005	–	Cn1ncc2c(-c3cccc4c3CCN(C(=O)c3cn(-c5cccc(Cl)c5F)nn3)C4C(=O)Nc3ccc(C(=O)O)cc3)cccc21 (stereo not drawn) [Example 169, 4-(2-(1-(3-chloro-2-fluorophenyl)-1H-1,2,3-triazole-4-carbonyl)-5-(1-methyl-1H-indazol-4-yl)-1,2,3,4-tetrahydroisoquinoline-1-carboxamido)benzoic acid]
< 0.005	–	CCOc1ccc(-c2cccc3c2CCN(C(=O)c2cn(-c4cccc(Cl)c4F)nn2)C3C(=O)Nc2ccc(C(=O)O)cc2)cn1 (stereo not drawn) [Example 178, 4-(2-(1-(3-chloro-2-fluorophenyl)-1H-1,2,3-triazole-4-carbonyl)-5-(6-ethoxypyridin-3-yl)-1,2,3,4-tetrahydroisoquinoline-1-carboxamido)benzoic acid, TFA salt]
< 0.005	–	O=C(O)c1ccc(NC(=O)C2c3cccc(C4=CCNCC4)c3CCN2C(=O)c2cn(-c3cccc(Cl)c3F)nn2)cc1 (stereo not drawn) [Example 187, 4-(2-(1-(3-chloro-2-fluorophenyl)-1H-1,2,3-triazole-4-carbonyl)-5-(1,2,3,6-tetrahydropyridin-4-yl)-1,2,3,4-tetrahydroisoquinoline-1-carboxamido)benzoic acid]
